Molecular target: T1, Catechol O-methyltransferase (Sus scrofa, UniProt Q99028)
T1 sequence (Q99028 whole entry): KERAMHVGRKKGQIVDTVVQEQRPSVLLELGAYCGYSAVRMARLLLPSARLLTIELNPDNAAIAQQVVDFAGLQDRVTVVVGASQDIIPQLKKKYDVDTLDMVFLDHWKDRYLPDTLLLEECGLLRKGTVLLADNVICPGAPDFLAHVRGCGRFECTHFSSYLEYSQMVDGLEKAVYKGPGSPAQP
Assay: Inhibitory activity against catechol O-methyltransferase
Settings: read-out: I50

IC50 [mM] | Compound
10 | C[S+](CCCCc1c[nH]c2ccccc12)C[C@H]1O[C@@H](n2cnc3c(N)ncnc32)[C@H](O)[C@@H]1O (some centres not stated)
> 10 | C[S+](CCCc1c[nH]c2ccccc12)C[C@H]1O[C@@H](n2cnc3c(N)ncnc32)[C@H](O)[C@@H]1O (some centres not stated)

— ChEMBL document CHEMBL1122373, “Multisubstrate adducts as potential inhibitors of S-adenosylmethionine dependent methylases: inhibition of indole N-methyltransferase by (5'-deoxyadenosyl)[3-(3-indolyl)prop-1-yl]methylsulfonium and (5'-deoxyadenosyl)[4-(3-indolyl)but-1-yl]methylsulfonium salts” (J Med Chem, 1983)
